# Assay results as given in patent US5153183A, “Methylenediphosphonic acid compounds and methods of use for the treatment of rheumatism and osteophorosis” (Toray Industries, Inc., priority 1989, dated 1992).
# Tests used:
# [1] = test system: Lewis female rat; assay: Adjuvant arthritis test; format: in vivo; conditions: 50 mg/kg oral daily, 8th to 21st day after adjuvant injection, 6 cases; for Edema inhibiting rate against control group, +14 day, Left / Edema inhibiting rate against control group, +21 day, Left: left hindpaw (injected); for Edema inhibiting rate against control group, +14 day, Left / Edema inhibiting rate against control group, +14 day, Right: day 14; for Edema inhibiting rate against control group, +21 day, Left / Edema inhibiting rate against control group, +21 day, Right: day 21; for Edema inhibiting rate against control group, +14 day, Right / Edema inhibiting rate against control group, +21 day, Right: right hindpaw; for Zonal bone damage inhibiting rate against control group, +22 day: soft X-ray of hindlegs, day 22
# Experimental: When a Mycobacterium butyricum adjuvant is injected into a rat, there occurs polyarthritis similar to human rheumatoid arthritis. Using such an adjuvant arthritis model, the anti-inflammatory and anti-rheumatic effects of the compounds of the present invention and the reference were examined according to the following procedure.
# 0.1 mg of dry dead Mycobacterium butyricum was suspended in 0.1 ml of liquid paraffin, and the suspension was injected into the skin of the sole of the left hindpaw of a Lewis female rat, 7-weeks old. The compounds obtained in Examples 2 and 4 and Reference were respectively dissolved in sterilized distilled water and orally administered at a dose of 50 mg per kg of body weight every day for two weeks from the 8th to 21st day after adjuvant injection. The volumes of the left and right hindpaws were measured. Edema density was calculated according to the formula [formula] and the Edema inhibiting rate was obtained according to the formula [formula] with the results shown in Table 1.
# On the 22nd day, the rats were sacrificed, and soft X-ray photos of the left and right hind-legs were taken, and, based on the soft X-ray photos, the extent of bone damage at 5 zones on the left and right hindlegs was evaluated in points of 5 ranks, and the total points were taken as the zonal bone damage index. Further, the zonal bone damage inhibiting rate was calculated according to the formula [formula] with the results shown in Table 1.
# The results thus obtained had ** noted for those which were significant according to the Student t-test and Tukey multiple comparison method with a perilous rate p<0.02 against the control group having only the sterilized distilled water administered and * noted for those which were significant with a perilous rate p<0.05.
# [2] = test system: osteoclasts; assay: Bone resorption inhibition test; format: cell-based; conditions: Mus musculus, Osteoclast, 120 h, active-type vitamin D3 (10^-10 M), ivory lamella, 5 days, read-out: Bone resorption inhibiting rate against control group
# Experimental: With an osteoclast fraction prepared from the hindleg of a mouse placed on a lamella of ivory and stimulated by active-type vitamin D3 there is an resorption lacuna produced on the surface of ivory due to the absorption activity of the osteoclast. Using this absorption model of the bone, the bone resorption inhibiting effect of the compound of the invention was examined according to the following procedure.
# 5 μl of a suspension of osteoclasts prepared from the hindleg of a mouse was placed on a lamella of ivory and cultured in 500 μl of a 5% calf serum α-added MEM medium containing active-type vitamin D3 (10^-10 M) and the compound of the present invention ([…] or 10^-5 M) for 5 days. After culturing, the osteoclasts were removed from the ivory lamella, and the ivory was stained. The total area of resorption lacunae which became obvious by staining was calculated through image analysis. The bone absorption inhibiting rate was calculated by the formula [formula]
# [3] = Acute toxicity test; format: in vivo, rat; conditions: rat, in vivo, iv, 14 days, distilled water
# Experimental: (§1) Using female and male SD rats (5-week age), 6 rats per group, and a 10% aqueous solution of gum arabic for oral administration, and distilled water for intravenous administration as a solvent for the compound to be tested, mortality, during 14 days after administration were recorded, and the LD50 values were calculated according to the Miller and Tainter Method (1944).
# [4] = test system: SD rats; assay: Acute toxicity test; format: in vivo, rat; conditions: 14 days, 20160 min
# Experimental: as §1
# [5] = Oral, Female SD rats, 10% gum arabic
# [6] = Oral, Male SD rats, 10% gum arabic
SMILES,"Edema inhibiting rate against control group, +14 day, Left [1]","Edema inhibiting rate against control group, +21 day, Left [1]","Edema inhibiting rate against control group, +14 day, Right [1]","Edema inhibiting rate against control group, +21 day, Right [1]","Zonal bone damage inhibiting rate against control group, +22 day [1]",inhibition at 10 µM ([2]; 10^-5 M),inhibition at 1 µM ([2]; 10^-6 M),LD50 at 336 h ([3]; Female SD rats),LD50 at 336 h ([3]; Male SD rats),"LD50 Values [4, 5]","LD50 Values [4, 6]","LD50 Values ([4]; Intravenous, Female SD rats, distilled water)","LD50 Values ([4]; Intravenous, Male SD rats, distilled water)"
"CC(C)(C)c1cc(SC(P(=O)(O)O)P(=O)(O)O)cc(C(C)(C)C)c1O [Example 2, (3,5-di-t-butyl-4-hydroxyphenylthio)methylenediphosphonic acid]",29.2%,33.8%,39.7%,30.4%,32.5%,86%,48%,29.8 mg/kg,45.2 mg/kg,616 mg/kg,652 mg/kg,,
"CC(C)(C)c1cc(CC(P(=O)(O)O)P(=O)(O)O)cc(C(C)(C)C)c1O [Example 4, 2-(3,5-di-t-butyl-4-hydroxyphenyl)ethylidene-1,1-di-phosphonic acid]",2.6%,9.7%,31.6%,21.6%,29.4%,,,,,,,,
"CC(C)(C)c1cc(SC(P(=O)(O)O)P(=O)(O)O)cc(C(C)(C)C)c1O [Example 8, Disodium(3,5-di-t-butyl-4-hydroxyphenylthio)methylenediphosphonate]",,,,,,,,,,1770 mg/kg,1871 mg/kg,35.7 mg/kg,48.2 mg/kg
"O=P(O)(O)C(Cc1ccc(O)cc1)P(=O)(O)O [Reference compound, 2-(4-hydroxyphenyl)ethylidene-1,1-diphosphonic acid, reference compound]",4.4%,0.9%,7.9%,6.9%,0%,,,,,,,,
